Experimental data published in patent US12516058B2, “Small-molecule compounds for controlling endosomal toll-like receptors and therapeutic agent for autoimmune diseases using same” (priority 2020, dated 2026).
“Also recorded” adds a separate entry of the source.

target: T1, TLR7 (Mus musculus, UniProt P58681); assay: TNF-α secretion ELISA after TLR7 agonist imiquimod (IMQ) in RAW 264.7 cells; format: cell-based; settings: SK01 and structural derivatives, inhibitor 1 h, then IMQ 4 h
T1 construct: endogenous in cells; host or cells: RAW 264.7
T1 sequence (P58681 27-1050): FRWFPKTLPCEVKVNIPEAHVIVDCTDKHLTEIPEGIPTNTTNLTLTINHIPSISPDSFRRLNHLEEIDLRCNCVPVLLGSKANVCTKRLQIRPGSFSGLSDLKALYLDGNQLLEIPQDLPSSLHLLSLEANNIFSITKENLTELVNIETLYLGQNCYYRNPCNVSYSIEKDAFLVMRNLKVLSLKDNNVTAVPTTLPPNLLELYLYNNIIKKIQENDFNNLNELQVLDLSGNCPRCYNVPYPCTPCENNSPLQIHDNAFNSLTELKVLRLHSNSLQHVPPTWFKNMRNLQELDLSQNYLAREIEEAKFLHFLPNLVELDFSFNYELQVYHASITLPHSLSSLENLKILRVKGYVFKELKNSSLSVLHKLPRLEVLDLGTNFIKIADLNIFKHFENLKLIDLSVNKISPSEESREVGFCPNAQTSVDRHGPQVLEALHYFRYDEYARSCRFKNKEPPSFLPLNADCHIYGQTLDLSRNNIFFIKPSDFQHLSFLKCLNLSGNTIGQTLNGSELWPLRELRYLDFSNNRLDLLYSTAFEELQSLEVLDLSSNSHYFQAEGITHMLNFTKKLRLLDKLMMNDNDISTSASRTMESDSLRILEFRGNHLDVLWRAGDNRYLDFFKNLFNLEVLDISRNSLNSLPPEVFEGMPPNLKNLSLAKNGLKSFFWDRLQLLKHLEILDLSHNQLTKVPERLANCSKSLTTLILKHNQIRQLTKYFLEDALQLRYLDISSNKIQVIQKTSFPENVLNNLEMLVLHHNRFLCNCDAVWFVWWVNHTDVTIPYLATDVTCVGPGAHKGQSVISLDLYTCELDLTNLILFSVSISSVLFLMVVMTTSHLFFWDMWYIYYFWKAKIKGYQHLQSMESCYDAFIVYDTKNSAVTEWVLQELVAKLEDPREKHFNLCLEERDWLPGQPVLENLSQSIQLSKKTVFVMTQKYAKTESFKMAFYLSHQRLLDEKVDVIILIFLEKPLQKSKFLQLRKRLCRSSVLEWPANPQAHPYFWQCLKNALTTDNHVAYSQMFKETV
Description: In order to determine the inhibitory activities of the test-ligand, RAW 264.7 cells were pretreated with each candidate compound for 1 hour, then treated with Pam3CSK4 (synthetic triacyl lipopeptide; TLR1/2, Invitrogen), FSL-1 (synthetic diacyl lipoprotein, TLR2/6, 100 ng/ml), lipopolysaccharide (LPS, TLR4, Sigma Aldrich), imiquimod (IMQ, TLR7, Invitrogen), and ODN2395 (type C CpG repeat motif DNA oligo(5′-[…]-3), TLR9, Bioneer) ligand for 4 hours, and treated with poly I:C (I:C repeat motif double-stranded RNA, TLR3, Invitrogen) and TL8-506 (TLR8, Invitrogen) showing delayed reactivity for 24 hours. After activation of TLR, the supernatant was diluted in an appropriate ratio so as to measure within the standard dose range, transferred to a pre-coated 96-well assay plate, and then treated with mouse TNF-alpha secretion level in accordance with the manufacturer's instructions using a mouse-TNF-alpha ELISA-kit (Invitrogen).
In order to plot the concentration-dependent LC50 curves, treatment with the SK series ligands at different concentrations up to 200 μM (the highest concentration that could be treated within the level of 0.5% DMSO) was performed. Then, cell viability and toxicity response upon treatment with ligands were analyzed by MTT as described in Examples 1-3. Cell viability in each plot was normalized from negative control (100%; no treatment) to positive control (highest concentration of test-ligand), and LC50 was determined by non-linear regression (Graph Pad Prism 7.0). In order to plot the concentration-dependent IC50 curves, pre-treatment with the SK series ligands was performed at different concentrations up to 50 μM (twice the initial concentration). Cell responses mediated by TLR7 and TLR9 (levels of TNF-α secretion) were analyzed by ELISA as described in Examples 1-4. The cytokine level in each plot was normalized from negative control (non-treated) to positive control (treatment with ligand), and IC50 was determined by non-linear regression (Graph Pad Prism 7.0).
In order to select potential inhibitory molecules against TLR3/TLR7/TLR8/TLR9 activation, first, MTT (3-(4,5-dimethylthiazol-2-yl)-2,5-diphenyltetrazolium bromide) cell viability assay (FIG. 7) was performed upon treatment with a set of ligands from SK21 to SK82 at a concentration of 20 μM and the inhibitory activity thereof was evaluated by an ELISA assay to monitor the level of TNF-α secretion in RAW 264.7 cells. The experimental ligands from SK21 to SK82 were administered at 0.5 μM or 2 μM to the RAW 264.7 cells and stimulated with Imiquimod (TLR7, 1 μg/ml) and OND2395 (TLR9, 0.5 μM).

Row | Structure (SMILES) | inhibitory activity against TLR7 activation (TNF-α secretion)
1 | Cc1c(C)n(CCN(C)C)c2nc3c(c(N)c12)CCCCC3 [SK01, 1-(2-(dimethylamino)ethyl)-2,3-dimethyl-1,5,6,7,8,9-hexahydrocyclohepta[b]pyrrolo[3,2-e]pyridin-4-amine] | inhibitory ability for TLR7/TLR9 activation was verified; also recorded: specifically inhibit
2 | Cc1c(C)n(CCCN(C)C)c2nc3c(c(N)c12)CCCCC3 [SK16, 1-(3-(dimethylamino)propyl)-2,3-dimethyl-1,5,6,7,8,9-hexahydrocyclohepta[b]pyrrolo[3,2-e]pyridin-4-amine] | potent inhibitor; also recorded: best inhibitory activity among the structural analogues of SK01; also recorded: specifically inhibit

same assay, conditions: SK21 to SK82 at 0.5 μM or 2 μM, Imiquimod 1 μg/ml

Row | Structure (SMILES) | inhibitory activity against TLR7 (level of TNF-α secretion)
3 | Cc1cc2c(N)c3c(nc2n1CCCN(C)C)CCCCCC3 [SK41, 1-(3-(dimethylamino)propyl)-2-methyl-5,6,7,8,9,10-hexahydro-1H-cycloocta[b]pyrrolo[3,2-e]pyridin-4-amine] | significant inhibitory activity; also recorded: significantly reduced
4 | COc1ccc2c(c1)c1c(N)c3c(nc1n2CCCN(C)C)CCCC3 [SK50, 6-(3-(dimethylamino)propyl)-9-methoxy-2,3,4,6-tetrahydro-1H-indolo[2,3-b]quinolin-11-amine] | significant inhibitory activity; also recorded: significantly reduced
5 | Cc1ccc2c(c1)c1c(N)c3c(nc1n2CCCN(C)C)CCCC3 [SK58, 6-(3-(dimethylamino)propyl)-9-methyl-2,3,4,6-tetrahydro-1H-indolo[2,3-b]quinolin-11-amine] | significant inhibitory activity; also recorded: significantly reduced
6 | COC(=O)c1ccc2c(c1)c1c(N)c3c(nc1n2CCCN(C)C)CCCC3 [SK64, Methyl 11-amino-6-(3-(dimethylamino)propyl)-2,3,4,6-tetrahydro-1H-indolo[2,3-b]quinolin-9-carboxylate] | significant inhibitory activity; also recorded: significantly reduced
